Experimental data reported in US5565437A, “2',3'-dideoxy-2'-fluoro-purine nucleosides and methods for using same” (priority 1992, dated 1996).

Legend:
[1] = Acid-catalyzed decomposition / stability in acid, 37° C., HPLC; assay type: physicochemical
Experimental: In order to study acid-catalyzed decomposition of the subject compounds, a pH 1 buffer was prepared by dissolving 0.746 g KCl and 26.8 g 1.0N HCl in sufficient distilled water to give 200 ml total volume. Ten ml of buffer, prewarmed to 37° C., was added to 102 micrograms of ddA (Compound I), and 93 micrograms of each compounds II or III, 2',3'-dideoxy-2'-alpha-flourodeminine or 2'-beta-flouro-2',3'-dideoxyadenosine. The samples were shaken and maintained at 37° C. Aliquots were taken at timed intervals and neutralized immediately with 0.1 NaOH and chilled on ice. The amounts of ddA and the fluorinated analogs were determined by HPLC analysis using a 4.6×250 mm […] Ultrasphere ODS column protected by a guard column packed with 37-50 micron Vydac 201SC. Elution was with 12% acetonitrile in 0.01 M pH 6.8 phosphate buffer at 1.0 ml/minute. The integrator peak areas were plotted as a function of time, and the data was fitted to a first order decomposition curve by a computer program (MLAB).

[2] = relative to adenosine; cited from earlier work
[3] = test system: human immunodeficiency virus (HIV); conditions: background statement; cited from earlier work
[4] = test system: HIV; conditions: background statement; cited from earlier work
[5] = test system: human immunodeficiency virus (HIV; HTLV-IIIB virus) in ATH8 cells; assay: HIV cytopathic assay using ATH8 cells (protection against the cytopathic effect of HIV); assay type: cell-based
Experimental: To test the cytopathic effect of the compounds of the present invention, HIV cytopathic assay was performed using ATH8 cells as described by Mitsuya et al., Proc. Nat. Acad. Sci. USA, 83, 1911 (1986). In brief, 2×10^5 ATH8 cells were preexposed to polybrene, exposed to HTLV-IIIB virus (2000 virus particles/cell) for 45 minutes after treatment with polybrene, resuspended in 1 ml of culture medium containing Interleukin 2 in the presence or absence of various concentrations of compounds, and incubated in culture tubes at 37° C. in 5% CO2 /95% air humidified atmosphere. Control cells were treated similarly but were not exposed to the virus. At various times on days 5 to 7 of culture, the total viable cells were counted in a hemocytometer by the trypan blue dye exclusion method. In the HIV cytopathic effect assay using ATH8 cells, 0.5 to 5 virus particles per cell represent the minimum cytopathic dose of the virus.

[6] = test system: adenosine deaminase; assay: Metabolism by adenosine deaminase in the body; assay type: in vitro ADME

Nc1ncnc2c1ncn2[C@H]1CC[C@@H](CO)O1 [Compound I, 2',3'dideoxyadenosine]
half-life ([1]; ph 1 kcl/hcl buffer, pH 1.0, 37° C. (FIG. 3)): 35 s
rate of acid-catalyzed hydrolysis of the glycosidic bond, times faster than adenosine [2]: 40,000 times
in vitro activity against HIV [3]: potent in vitro activity

Nc1ncnc2c1ncn2[C@@H]1O[C@H](CO)C[C@H]1F [Compound II, 2',3'-dideoxy-2'-alpha-flouroadenosine]
stability to acid-catalyzed decomposition ([1]; pH 2, 37° C. (FIG. 2)): stable to acid-catalyzed decomposition

antimoniotungstate
HIV replication in the presence of compound [4]: considerably slower

Nc1ncnc2c1ncn2[C@@H]1O[C@H](CO)C[C@@H]1F [Compound III, 2',3'-dideoxy-2'-beta-fluoroadenosine]
durability of the antiviral effect, compared with the parent compound I ([5]; compared with compound I (ddA)): as durable as that of the parent compound
activity and potency in protecting ATH8 cells against the cytopathic effect of HIV, compared with ddA ([5]; substantial viral excess, FIG. 1): approximately as active and potent as ddA
change after exposure to acidic conditions ([1]; 24 hour exposure, pH 1 (FIG. 3)): completely unchanged
metabolism by adenosine deaminase [6]: metabolism of 2',3'-dideoxy-2'-beta-fluoroadenosine to compound IV

Cc1ccc(C(=O)Nc2ccc(S(=O)(=O)O)c3cc(S(=O)(=O)O)cc(S(=O)(=O)O)c23)cc1NC(=O)c1cccc(NC(=O)Nc2cccc(C(=O)Nc3cc(C(=O)Nc4ccc(S(=O)(=O)O)c5cc(S(=O)(=O)O)cc(S(=O)(=O)O)c45)ccc3C)c2)c1 [suramin]
HIV replication in the presence of compound [4]: considerably slower
